Earlier results as cited in patent publication US11446320B1, “Pharmaceutical combination having potent antiviral activity against single-stranded RNA viruses” (priority 2021, dated 2022).

Key:
SARS-CoV-2 = conditions: mammalian cells, in vitro

| Compound | effectiveness against influenza viruses (influenza viruses) | effectiveness against arenaviruses (arenaviruses) | effectiveness against bunyaviruses (bunyaviruses) | effectiveness against filoviruses (filoviruses) | inhibition of dengue virus (dengue virus) | inhibition of yellow fever virus (yellow fever virus) | replication of SARS-CoV-2 (SARS-CoV-2) |
| --- | --- | --- | --- | --- | --- | --- | --- |
| NC(=O)c1nc(F)c[nH]c1=O [Favipiravir] | effective | effective | effective | effective | – | – | – |
| ivermectin | – | – | – | – | inhibit | inhibit | slow replication |
| NC(=O)c1nc(F)cn([C@@H]2O[C@H](COP(=O)(O)OP(=O)(O)OP(=O)(O)O)[C@@H](O)[C@H]2O)c1=O [favipiravir-RTP] | effective | effective | effective | effective | – | – | – |
